Test results reported in publication PMC11582173, “Synthesis, cytotoxicity, anti-inflammatory, anti-metastatic and anti-oxidant activities of novel chalcones incorporating 2-phenoxy-N-arylacetamide and thiophene moieties: induction of apoptosis in MCF7 and HEP2 cells” (Naunyn-Schmiedeberg's Archives of Pharmacology, 2024).
Where “and” joins values, the source holds several entries; their conditions need not be identical. Equal entries are not always repeated.

Key:
Format in all cases: cell-based, human
[1] = test system: IL-6; test: ELISA, IL-6 concentration
Method: (§1) The concentrations of matrix metalloproteinase-2 (MMP2), matrix metalloproteinase-9 (MMP9), Bcl2, BAX, P53, Malondialdehyde (MDA), Glutathione (GSH), caspase 8, caspase 9 and IL-6 were measured quantitatively in 5c treated MCF7 and HEP2 cells using ELISA (Enzyme-Linked Immunosorbent Assay) (Table 4). Gelatinases are a collective word for MMP-2 and MMP-9, where MMP-2 is gelatinase-A and MMP-9 is gelatinase-B. Solid tumor invasion, metastasis, and angiogenesis have long been linked to gelatinases (Das et al. [2021]). […] Bcl2 is a crucial protein that targets apoptosis inhibition. It is regarded as a predictive biomarker or therapeutic target in the diagnosis of cancer due to its broad expression in a variety of cancers (Porter et al. [2009]). […] The pro-apoptotic protein BAX permeabilizes the mitochondrial outer membrane by changing from a cytosolic monomer to a hazardous oligomer triggering the apoptosis process (Fulda and Debatin [2006]). […] P53 transcription factor performs an essential tumor suppressor role by coordinating a wide range of physiological responses, including DNA repair, cell cycle arrest, cellular senescence, cell death, cell differentiation, and metabolism (Liebl and Hofmann [2021]). It was activated in MCF7 and HEP2-treated cells with values (4.28 and 3.109 ng/mL), respectively, compared to their controls (3.44 and 2.06 ng/mL). […]

[2] = test system: HEP2 cells; test: Flow cytometric analysis of cell cycle, HEP2; details: HEP2, IC50 of 5c, 48 h
Method: In the G0-G1 stage, the percentage of 5c-treated cells declined to 55.4% as opposed to 57.6% of untreated control cells. It was found in a previous work that lutein-induced G2/M phase arrest in A549 and PC-9 cells (Di et al. [2019]).
In DMEM-supplemented media, cells were plated in 12-well plates at a cell density of 6–8×10^5 per well. After twenty-four hours, cells were cultured for an additional 48 hours with the IC50 of the target compound. The untreated cells were used as a negative control. After 48 h of incubation, the treated cells were centrifuged at 1,200 rpm and 4 °C for 10 min. After discarding the supernatant, the wells were then given a single phosphate-buffered saline (PBS) wash and then centrifuged for 10 min at 1,200 rpm. Trypsin/EDTA was used to collect the cells, and after one PBS wash, they were resuspended in 0.5 mL of 0.05% Triton X-100 for 10 min at room temperature. Each cell suspension was stained by being given 1 mL of 50 µg/mL propidium iodide (PI) to be left at room temperature in the darkness for 20 minutes. The analysis of the cell cycle was done by a flow cytometer (Becton Dickenson (BD) FACSCalibur, USA) (Michalkova et al. [2022]).

[3] = test system: Caspase 8; test: ELISA, Caspase 8 concentration
Method: as §1

[4] = test system: Glutathione (GSH); test: ELISA, GSH concentration
Method: as §1

[5] = test system: P53; test: ELISA, P53 concentration
Method: as §1

`COc1ccc(NC(=O)COc2ccc(C=CC(=O)c3cccs3)cc2)cc1` [Compound 5c, N-(4-Methoxyphenyl)-2-(4-(3-oxo-3-(thiophen-2-yl)prop-1-en-1-yl)phenoxy)acetamide] was tested, and the IL-6 concentration ([1]; 5c treated HEP2 cells, untreated 85.24±1.16) was 54.27 pg/mL and 54.27 ± 5.509 pg/mL, the IL-6 concentration ([1]; 5c treated MCF7 cells, untreated 100.47±0.439) was 74.68 pg/mL and 74.68 ± 0.979 pg/mL and the “Percentage of DNA in G2-M phase” value ([2]; untreated control 2.205±0.10607) was 3.56% and 3.565±0.1485%. For the same molecule, the “Percentage of DNA in S phase” value ([2]; untreated control 40.095±0.36062) was 40.96% and 40.96±0.08485%, the “Percentage of DNA in G0-G1 phase” value ([2]; untreated control 57.67±0.21213) was 55.4% and 55.475±0.233% and the Caspase8 concentration ([3]; 5c treated HEP2 cells, untreated 0.187±0.025) was 2.27 ng/mL and 2.27 ± 0.142 ng/mL. The Caspase8 concentration ([3]; 5c treated MCF7 cells, untreated 0.162±0.0203) was 2.13 ng/mL and 2.13 ± 0.268 ng/mL, the GSH concentration ([4]; 5c treated HEP2 cells, untreated 0.668±0.010) was 0.821 ng/mL and 0.821 ± 0.009 ng/mL and the GSH concentration ([4]; 5c treated MCF7 cells, untreated 0.737±0.009) was 0.939 ng/mL and 0.939 ± 0.022 ng/mL. The P53 concentration ([5]; 5c treated HEP2 cells, untreated 2.06±0.425) was 3.109 ng/mL and 3.109 ± 0.089 ng/mL and the P53 concentration ([5]; 5c treated MCF7 cells, untreated 3.44±0.25) was 4.28 ng/mL and 4.28 ± 0.188 ng/mL.
